Test results reported in ChEMBL document CHEMBL3991601, “The target landscape of clinical kinase drugs” (Science, 2017).
Activity calls are given as the source filed them. Rule as the data show it, for most assays here: actives have a measured Kd and inactives only a lower limit.

Columns and labels:
[1] = target: T1, Acyl-CoA dehydrogenase family member 11 (Homo sapiens, UniProt Q709F0)
T1 sequence (Q709F0 whole entry): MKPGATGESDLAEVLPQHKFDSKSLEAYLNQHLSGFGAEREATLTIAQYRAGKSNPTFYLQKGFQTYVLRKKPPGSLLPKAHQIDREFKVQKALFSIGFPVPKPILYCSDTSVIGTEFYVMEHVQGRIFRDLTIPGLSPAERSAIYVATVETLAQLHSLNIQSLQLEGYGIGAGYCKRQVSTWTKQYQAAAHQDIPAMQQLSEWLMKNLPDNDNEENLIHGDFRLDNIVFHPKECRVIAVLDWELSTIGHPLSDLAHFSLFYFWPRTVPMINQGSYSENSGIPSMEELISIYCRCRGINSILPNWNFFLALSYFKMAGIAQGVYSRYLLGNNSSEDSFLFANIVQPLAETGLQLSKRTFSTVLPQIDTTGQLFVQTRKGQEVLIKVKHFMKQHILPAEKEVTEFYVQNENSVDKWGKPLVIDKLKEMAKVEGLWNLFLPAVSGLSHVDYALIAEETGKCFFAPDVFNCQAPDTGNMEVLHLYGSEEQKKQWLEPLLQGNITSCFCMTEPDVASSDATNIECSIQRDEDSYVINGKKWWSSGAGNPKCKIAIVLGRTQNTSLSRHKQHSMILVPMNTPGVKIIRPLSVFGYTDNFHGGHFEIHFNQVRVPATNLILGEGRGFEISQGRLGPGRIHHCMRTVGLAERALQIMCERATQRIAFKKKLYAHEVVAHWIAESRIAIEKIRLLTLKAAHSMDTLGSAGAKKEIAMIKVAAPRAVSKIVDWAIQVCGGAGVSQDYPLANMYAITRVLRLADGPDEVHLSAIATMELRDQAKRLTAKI

[2] = target: RAC-alpha serine/threonine-protein kinase (Homo sapiens, UniProt P31749)
[3] = target: T2, Cysteine--tRNA ligase, cytoplasmic (Homo sapiens, UniProt P49589)
T2 sequence (P49589 whole entry): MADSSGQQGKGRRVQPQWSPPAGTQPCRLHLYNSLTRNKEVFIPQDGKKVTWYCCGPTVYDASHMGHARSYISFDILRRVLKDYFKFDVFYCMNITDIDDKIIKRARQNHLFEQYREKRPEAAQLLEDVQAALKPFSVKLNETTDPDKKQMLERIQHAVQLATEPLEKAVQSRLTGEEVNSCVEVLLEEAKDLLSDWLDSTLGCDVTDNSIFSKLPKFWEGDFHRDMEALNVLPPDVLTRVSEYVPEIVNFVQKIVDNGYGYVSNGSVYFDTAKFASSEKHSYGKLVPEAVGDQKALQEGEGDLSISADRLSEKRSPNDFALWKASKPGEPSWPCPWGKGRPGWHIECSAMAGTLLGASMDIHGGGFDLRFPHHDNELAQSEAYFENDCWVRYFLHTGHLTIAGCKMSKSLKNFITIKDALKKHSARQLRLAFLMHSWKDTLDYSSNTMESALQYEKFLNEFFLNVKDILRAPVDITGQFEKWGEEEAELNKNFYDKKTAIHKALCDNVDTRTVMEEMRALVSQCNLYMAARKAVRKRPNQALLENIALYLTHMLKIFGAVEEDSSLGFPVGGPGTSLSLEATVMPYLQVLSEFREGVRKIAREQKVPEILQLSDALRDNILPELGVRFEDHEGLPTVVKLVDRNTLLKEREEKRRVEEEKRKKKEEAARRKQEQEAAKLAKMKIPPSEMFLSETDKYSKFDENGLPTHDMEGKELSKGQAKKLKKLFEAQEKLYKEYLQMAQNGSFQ

[4] = target: Cyclin-dependent kinase 6 (Homo sapiens, UniProt Q00534)
[5] = target: Citron Rho-interacting kinase (Homo sapiens, UniProt O14578)
[6] = target: Dual specificity protein kinase CLK1 (Homo sapiens, UniProt P49759)
[7] = target: T3, ATP-dependent RNA helicase DDX42 (Homo sapiens, UniProt Q86XP3)
T3 sequence (Q86XP3 whole entry): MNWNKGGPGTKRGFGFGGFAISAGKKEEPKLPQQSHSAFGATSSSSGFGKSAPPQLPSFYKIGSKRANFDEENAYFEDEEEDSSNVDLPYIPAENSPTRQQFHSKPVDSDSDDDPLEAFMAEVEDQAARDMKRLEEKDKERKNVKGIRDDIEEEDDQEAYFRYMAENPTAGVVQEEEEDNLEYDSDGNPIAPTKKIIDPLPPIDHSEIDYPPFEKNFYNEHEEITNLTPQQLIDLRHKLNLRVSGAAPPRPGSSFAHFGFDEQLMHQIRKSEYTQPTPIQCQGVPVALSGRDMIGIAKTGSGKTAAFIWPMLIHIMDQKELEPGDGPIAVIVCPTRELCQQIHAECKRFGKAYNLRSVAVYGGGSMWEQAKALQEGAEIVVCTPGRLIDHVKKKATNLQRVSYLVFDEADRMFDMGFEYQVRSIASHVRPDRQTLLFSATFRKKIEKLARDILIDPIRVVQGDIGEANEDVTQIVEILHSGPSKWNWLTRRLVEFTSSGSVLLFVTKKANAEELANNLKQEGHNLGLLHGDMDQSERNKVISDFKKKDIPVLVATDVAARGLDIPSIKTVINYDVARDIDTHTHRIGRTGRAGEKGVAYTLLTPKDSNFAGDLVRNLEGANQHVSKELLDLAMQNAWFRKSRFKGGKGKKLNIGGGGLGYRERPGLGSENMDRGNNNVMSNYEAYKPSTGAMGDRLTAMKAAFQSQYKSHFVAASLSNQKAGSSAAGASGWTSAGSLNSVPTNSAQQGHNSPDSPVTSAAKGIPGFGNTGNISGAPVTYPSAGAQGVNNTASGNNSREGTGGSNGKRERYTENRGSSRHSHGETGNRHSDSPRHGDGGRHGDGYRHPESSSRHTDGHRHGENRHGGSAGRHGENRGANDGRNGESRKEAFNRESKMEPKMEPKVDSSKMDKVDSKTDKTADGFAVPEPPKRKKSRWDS

[8] = target: Serine/threonine-protein kinase/endoribonuclease IRE1 (Homo sapiens, UniProt O75460)
[9] = target: Insulin-like growth factor 1 receptor (Homo sapiens, UniProt P08069)
[10] = target: Mitogen-activated protein kinase kinase kinase kinase 4 (Homo sapiens, UniProt O95819)
[11] = target: Serine/threonine-protein kinase 16 (Homo sapiens, UniProt O75716)

Measured: Kd
Also: in the data inactive means no Kd found up to 30 µM.

Sequence of Mitogen-activated protein kinase kinase kinase kinase 4 (O95819 whole entry): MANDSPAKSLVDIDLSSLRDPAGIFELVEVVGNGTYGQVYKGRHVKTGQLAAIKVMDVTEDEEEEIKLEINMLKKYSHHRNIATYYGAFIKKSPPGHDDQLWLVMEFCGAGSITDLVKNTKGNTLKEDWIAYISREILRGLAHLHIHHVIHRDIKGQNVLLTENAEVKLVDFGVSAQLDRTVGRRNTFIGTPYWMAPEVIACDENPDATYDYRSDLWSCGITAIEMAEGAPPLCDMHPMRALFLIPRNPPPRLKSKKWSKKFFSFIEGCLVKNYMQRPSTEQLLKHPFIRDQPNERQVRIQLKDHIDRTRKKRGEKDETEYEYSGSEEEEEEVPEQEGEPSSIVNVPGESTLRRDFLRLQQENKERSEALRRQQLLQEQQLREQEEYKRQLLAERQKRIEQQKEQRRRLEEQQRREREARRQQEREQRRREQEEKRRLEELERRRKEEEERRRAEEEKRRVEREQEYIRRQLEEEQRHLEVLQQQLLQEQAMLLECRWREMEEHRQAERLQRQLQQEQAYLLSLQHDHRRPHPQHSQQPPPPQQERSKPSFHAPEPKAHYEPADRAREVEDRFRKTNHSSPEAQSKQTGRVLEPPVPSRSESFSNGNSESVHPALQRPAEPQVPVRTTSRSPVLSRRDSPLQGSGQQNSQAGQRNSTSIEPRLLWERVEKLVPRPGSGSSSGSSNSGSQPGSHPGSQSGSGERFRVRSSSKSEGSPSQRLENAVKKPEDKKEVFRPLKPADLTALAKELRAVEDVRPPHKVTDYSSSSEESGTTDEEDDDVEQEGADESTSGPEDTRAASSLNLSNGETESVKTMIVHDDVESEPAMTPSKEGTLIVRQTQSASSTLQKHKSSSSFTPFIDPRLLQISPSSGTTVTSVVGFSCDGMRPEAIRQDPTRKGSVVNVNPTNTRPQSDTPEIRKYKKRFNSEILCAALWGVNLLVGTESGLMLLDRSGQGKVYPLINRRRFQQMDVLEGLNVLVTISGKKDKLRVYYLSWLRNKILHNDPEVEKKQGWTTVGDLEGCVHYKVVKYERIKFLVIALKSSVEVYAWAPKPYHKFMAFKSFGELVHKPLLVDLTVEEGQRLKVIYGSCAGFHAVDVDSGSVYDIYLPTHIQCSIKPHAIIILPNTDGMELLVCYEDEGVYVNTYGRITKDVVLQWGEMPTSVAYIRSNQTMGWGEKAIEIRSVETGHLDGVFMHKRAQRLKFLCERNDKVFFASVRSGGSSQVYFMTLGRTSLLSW
Sequence of Serine/threonine-protein kinase 16 (O75716 whole entry): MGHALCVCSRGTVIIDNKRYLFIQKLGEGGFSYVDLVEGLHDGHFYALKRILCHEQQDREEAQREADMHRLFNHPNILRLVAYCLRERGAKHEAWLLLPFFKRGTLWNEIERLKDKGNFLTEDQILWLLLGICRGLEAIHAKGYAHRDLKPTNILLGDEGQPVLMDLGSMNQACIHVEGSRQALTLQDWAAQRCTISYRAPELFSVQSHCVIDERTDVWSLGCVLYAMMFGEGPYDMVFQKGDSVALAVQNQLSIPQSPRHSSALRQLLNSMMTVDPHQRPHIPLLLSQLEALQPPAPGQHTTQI
Sequence of RAC-alpha serine/threonine-protein kinase (P31749 whole entry): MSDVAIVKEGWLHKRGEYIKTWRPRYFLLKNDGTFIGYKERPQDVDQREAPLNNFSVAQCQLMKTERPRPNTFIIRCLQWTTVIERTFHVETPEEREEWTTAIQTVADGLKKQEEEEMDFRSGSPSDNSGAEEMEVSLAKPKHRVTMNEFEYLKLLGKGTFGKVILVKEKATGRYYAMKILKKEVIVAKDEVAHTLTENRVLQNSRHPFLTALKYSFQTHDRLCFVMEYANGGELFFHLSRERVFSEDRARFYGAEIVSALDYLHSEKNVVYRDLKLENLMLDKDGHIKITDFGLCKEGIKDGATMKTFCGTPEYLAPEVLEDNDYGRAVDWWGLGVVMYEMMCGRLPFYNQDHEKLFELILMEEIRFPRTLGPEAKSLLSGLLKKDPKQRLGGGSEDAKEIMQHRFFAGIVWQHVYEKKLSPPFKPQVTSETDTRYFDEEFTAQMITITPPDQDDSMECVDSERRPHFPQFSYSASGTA
Sequence of Serine/threonine-protein kinase/endoribonuclease IRE1 (O75460 whole entry): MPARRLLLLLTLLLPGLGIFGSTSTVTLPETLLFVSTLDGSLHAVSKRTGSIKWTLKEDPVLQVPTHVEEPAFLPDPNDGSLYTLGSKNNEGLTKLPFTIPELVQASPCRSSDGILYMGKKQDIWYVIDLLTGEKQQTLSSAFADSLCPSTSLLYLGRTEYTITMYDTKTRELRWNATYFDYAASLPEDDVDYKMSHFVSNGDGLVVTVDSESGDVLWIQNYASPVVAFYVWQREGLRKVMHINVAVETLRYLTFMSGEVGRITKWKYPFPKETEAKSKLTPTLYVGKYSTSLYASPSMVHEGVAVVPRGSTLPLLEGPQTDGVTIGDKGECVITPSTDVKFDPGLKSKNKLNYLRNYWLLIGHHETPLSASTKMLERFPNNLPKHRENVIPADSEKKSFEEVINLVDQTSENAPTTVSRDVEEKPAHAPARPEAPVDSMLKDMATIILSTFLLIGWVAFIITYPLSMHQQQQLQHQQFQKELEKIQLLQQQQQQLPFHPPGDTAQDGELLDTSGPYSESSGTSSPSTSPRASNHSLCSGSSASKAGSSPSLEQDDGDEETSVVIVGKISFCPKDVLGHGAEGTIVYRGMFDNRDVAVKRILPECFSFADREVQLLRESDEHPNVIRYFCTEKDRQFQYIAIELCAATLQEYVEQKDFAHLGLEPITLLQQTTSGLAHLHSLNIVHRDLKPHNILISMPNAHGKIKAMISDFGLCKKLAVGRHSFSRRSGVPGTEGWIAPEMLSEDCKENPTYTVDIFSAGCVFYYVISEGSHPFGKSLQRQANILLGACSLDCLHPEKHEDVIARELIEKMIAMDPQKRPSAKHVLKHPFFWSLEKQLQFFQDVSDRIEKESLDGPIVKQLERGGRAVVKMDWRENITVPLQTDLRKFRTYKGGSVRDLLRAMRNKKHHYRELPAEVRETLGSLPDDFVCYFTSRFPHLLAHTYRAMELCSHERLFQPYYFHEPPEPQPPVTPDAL
Sequence of Insulin-like growth factor 1 receptor (P08069 31-736 limits assumed): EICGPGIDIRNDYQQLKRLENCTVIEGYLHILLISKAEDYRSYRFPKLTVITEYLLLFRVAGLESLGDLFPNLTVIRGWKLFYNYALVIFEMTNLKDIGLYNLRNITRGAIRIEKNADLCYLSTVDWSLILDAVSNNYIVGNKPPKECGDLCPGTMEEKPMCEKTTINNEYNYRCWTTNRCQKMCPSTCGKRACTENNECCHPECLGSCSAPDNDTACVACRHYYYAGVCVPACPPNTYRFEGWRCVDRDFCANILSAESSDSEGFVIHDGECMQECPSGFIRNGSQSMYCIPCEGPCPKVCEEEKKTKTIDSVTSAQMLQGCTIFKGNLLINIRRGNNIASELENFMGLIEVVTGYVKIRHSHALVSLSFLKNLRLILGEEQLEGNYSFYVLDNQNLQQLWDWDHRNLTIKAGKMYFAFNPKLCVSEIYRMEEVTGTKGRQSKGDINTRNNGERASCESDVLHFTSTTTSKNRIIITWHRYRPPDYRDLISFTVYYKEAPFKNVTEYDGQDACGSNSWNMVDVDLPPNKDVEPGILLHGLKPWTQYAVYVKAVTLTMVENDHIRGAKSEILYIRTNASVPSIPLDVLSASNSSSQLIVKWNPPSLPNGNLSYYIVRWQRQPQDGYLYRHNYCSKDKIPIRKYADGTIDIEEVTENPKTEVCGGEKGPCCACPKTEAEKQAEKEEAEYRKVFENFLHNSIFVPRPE
Sequence of Insulin-like growth factor 1 receptor (P08069 741-1367 limits assumed): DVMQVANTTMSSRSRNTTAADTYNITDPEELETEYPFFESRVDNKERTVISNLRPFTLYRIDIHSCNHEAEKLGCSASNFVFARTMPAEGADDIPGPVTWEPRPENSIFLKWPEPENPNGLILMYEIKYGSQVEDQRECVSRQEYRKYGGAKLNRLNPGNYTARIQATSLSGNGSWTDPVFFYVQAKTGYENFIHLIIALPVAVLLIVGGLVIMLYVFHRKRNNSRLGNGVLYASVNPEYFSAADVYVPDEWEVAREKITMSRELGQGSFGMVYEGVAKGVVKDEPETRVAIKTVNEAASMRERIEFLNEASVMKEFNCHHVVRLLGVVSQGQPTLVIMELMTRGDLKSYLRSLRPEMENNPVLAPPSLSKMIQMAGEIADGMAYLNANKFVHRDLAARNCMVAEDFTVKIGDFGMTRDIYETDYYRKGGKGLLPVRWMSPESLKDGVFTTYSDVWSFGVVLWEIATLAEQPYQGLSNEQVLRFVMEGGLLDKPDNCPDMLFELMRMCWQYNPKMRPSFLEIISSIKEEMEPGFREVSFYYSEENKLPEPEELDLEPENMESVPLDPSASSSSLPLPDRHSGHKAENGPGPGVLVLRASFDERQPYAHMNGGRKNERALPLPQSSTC
Sequence of Dual specificity protein kinase CLK1 (P49759 whole entry): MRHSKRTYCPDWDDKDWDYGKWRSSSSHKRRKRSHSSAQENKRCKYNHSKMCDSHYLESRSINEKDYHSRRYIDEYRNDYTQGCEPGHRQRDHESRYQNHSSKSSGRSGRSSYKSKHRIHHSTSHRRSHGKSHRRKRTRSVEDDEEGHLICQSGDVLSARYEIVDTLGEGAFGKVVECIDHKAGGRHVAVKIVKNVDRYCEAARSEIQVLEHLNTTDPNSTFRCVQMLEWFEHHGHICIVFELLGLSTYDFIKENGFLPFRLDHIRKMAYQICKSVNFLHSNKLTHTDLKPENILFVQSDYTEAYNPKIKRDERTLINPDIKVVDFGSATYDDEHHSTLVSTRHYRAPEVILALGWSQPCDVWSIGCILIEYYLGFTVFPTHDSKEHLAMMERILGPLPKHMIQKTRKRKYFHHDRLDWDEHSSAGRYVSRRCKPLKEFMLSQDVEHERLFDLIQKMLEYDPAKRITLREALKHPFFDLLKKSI

COc1cccc2cc(-c3nc([C@H]4CC[C@H](C(=O)O)CC4)n4ncnc(N)c34)[nH]c12 [OSI-027]
inactive: [1] > 30 µM | [2] > 30 µM | [3] > 30 µM | [4] > 30 µM | [5] > 30 µM | [6] > 30 µM | [7] > 30 µM | [8] > 30 µM | [9] > 30 µM | [10] > 30 µM | [11] > 30 µM

COc1ccc2c(OCc3nnc4ccc(-c5ccccc5)nn34)ccnc2c1 [AMG-208]
inactive: [1] > 30 µM | [2] > 30 µM | [3] > 30 µM | [4] > 30 µM | [5] > 30 µM | [6] > 30 µM | [7] > 30 µM | [8] > 30 µM | [9] > 30 µM | [10] > 30 µM | [11] > 30 µM

COc1cc2ncnc(Nc3ccc(F)c(Cl)c3)c2cc1NC(=O)/C=C/CN1CCCCC1 [DACOMITINIB ANHYDROUS]
inactive: [1] > 30 µM | [2] > 30 µM | [3] > 30 µM | [4] > 30 µM | [5] > 30 µM | [6] > 30 µM | [7] > 30 µM | [8] > 30 µM | [9] > 30 µM | [10] > 30 µM | [11] > 30 µM

O=C(NOC[C@H](O)CO)c1ccc(F)c(F)c1Nc1ccc(I)cc1F [MIRDAMETINIB]
inactive: [1] > 30 µM | [2] > 30 µM | [3] > 30 µM | [4] > 30 µM | [5] > 30 µM | [6] > 30 µM | [7] > 30 µM | [8] > 30 µM | [9] > 30 µM | [10] > 30 µM | [11] > 30 µM

COc1cc2nccc(Oc3ccc(NC(=O)C4(C(=O)Nc5ccc(F)cc5)CC4)cc3)c2cc1OC [CABOZANTINIB]
inactive: [1] > 30 µM | [2] > 30 µM | [3] > 30 µM | [4] > 30 µM | [5] > 30 µM | [6] > 30 µM | [7] > 30 µM | [8] > 30 µM | [9] > 30 µM | [10] > 30 µM | [11] > 30 µM
